From patent US20170050957A1, “4-AMINO-6-(HETEROCYCLIC)PICOLINATES AND 6-AMINO-2-(HETEROCYCLIC)PYRIMIDINE-4-CARBOXYLATES AND THEIR USE AS HERBICIDES” (Dow AgroSciences LLC, priority 2013, published 2017)
Read-outs that look alike come from different tables or passages of the source.

Tests used:
[1] = test system: Key Broadleaf Weed and Crop Species; assay: Post-emergent Test II herbicidal activity (Table 15); assay type: in vivo; settings: post-emergence, 336 h, 14 d; for pest or weed control at 35 g/ha: 35 g ai/ha; for pest or weed control at 70 g/ha: 70 g ai/ha; for pest or weed control at 140 g/ha: 140 g ai/ha
Procedure, shortened: (§1)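 Plants at first-second true leaf stage, grown 7-21 d in greenhouse (~15 h photoperiod, 23-29 °C day), were track-sprayed at 187 L/ha with compound in acetone/DMSO/water/isopropanol/crop oil/Triton X-155 at a high rate plus 1/2× to 1/16× dilutions. Injury scored visually after 14 d versus untreated plants, 0 (none) to 100% (complete kill).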

[2] = test system: Key Grass and Sedge Weeds as well as Grass Crops; assay: Post-emergent Test II herbicidal activity (Table 16); assay type: in vivo; settings: post-emergence, 336 h, 14 days after application; for pest or weed control at 35 g/ha: 35 g ai/ha; for pest or weed control at 70 g/ha: 70 g ai/ha; for pest or weed control at 140 g/ha: 140 g ai/ha
Procedure, shortened: as §1

[3] = Abutilon theophrasti, velvetleaf (Abutilon theophrasti), read-out: Visual Growth Reduction (%) 14 Days After Application, ABUTH
[4] = Amaranthus retroflexus, redroot pigweed (Amaranthus retroflexus), read-out: Visual Growth Reduction (%) 14 Days After Application, AMARE
[5] = Brassica napus, oilseed rape, canola (Brassica napus), read-out: Visual Growth Reduction (%) 14 Days After Application, BRSNN
[6] = Chenopodium album, lambsquarters (Chenopodium album), read-out: Visual Growth Reduction (%) 14 Days After Application, CHEAL
[7] = Euphorbia heterophylla, wild poinsettia (Euphorbia heterophylla), read-out: Visual Growth Reduction (%) 14 Days After Application, EPHHL
[8] = Helianthus annuus, sunflower (Helianthus annuus), read-out: Visual Growth Reduction (%) 14 Days After Application, HELAN
[9] = Cyperus esculentus, yellow nutsedge (Cyperus esculentus), read-out: Visual Growth Reduction (%) 14 Days After Application CYPES
[10] = Echinochloa crus-galli, barnyardgrass (Echinochloa crus-galli), read-out: Visual Growth Reduction (%) 14 Days After Application ECHCG
[11] = Oryza sativa, rice (Oryza sativa), read-out: Visual Growth Reduction (%) 14 Days After Application ORYSA
[12] = Setaria faberi, giant foxtail (Setaria faberi), read-out: Visual Growth Reduction (%) 14 Days After Application SETFA
[13] = Triticum aestivum, wheat, spring (Triticum aestivum), read-out: Visual Growth Reduction (%) 14 Days After Application TRZAS
[14] = Zea mays, maize, corn (Zea mays), read-out: Visual Growth Reduction (%) 14 Days After Application ZEAMX

Row | Compound | pest or weed control at 35 g/ha [1, 3] | pest or weed control at 70 g/ha [1, 3] | pest or weed control at 140 g/ha [1, 3] | pest or weed control at 35 g/ha [1, 4] | pest or weed control at 70 g/ha [1, 4] | pest or weed control at 140 g/ha [1, 4] | pest or weed control at 35 g/ha [1, 5] | pest or weed control at 70 g/ha [1, 5] | pest or weed control at 140 g/ha [1, 5] | pest or weed control at 35 g/ha [1, 6] | pest or weed control at 70 g/ha [1, 6] | pest or weed control at 140 g/ha [1, 6] | pest or weed control at 35 g/ha [1, 7] | pest or weed control at 70 g/ha [1, 7] | pest or weed control at 140 g/ha [1, 7] | pest or weed control at 35 g/ha [1, 8] | pest or weed control at 70 g/ha [1, 8] | pest or weed control at 140 g/ha [1, 8] | pest or weed control at 35 g/ha [2, 9] | pest or weed control at 70 g/ha [2, 9] | further results
1 | COC(=O)c1nc(-c2ccc3ccsc3c2)c(F)c(N)c1Cl [Compound 3.12] | 60 to 74% | 95 to 100% | 95 to 100% | 60 to 74% | 60 to 74% | 85 to 94% | 0 to 29% | 0 to 29% | 30 to 44% | 95 to 100% | 95 to 100% | 95 to 100% | 60 to 74% | 60 to 74% | 85 to 94% | 85 to 94% | 85 to 94% | 85 to 94% | 0 to 29% | 0 to 29% | pest or weed control at 140 g/ha [2, 9]: 0 to 29%; pest or weed control at 35 g/ha [2, 10]: 85 to 94%; pest or weed control at 70 g/ha [2, 10]: 85 to 94%; pest or weed control at 140 g/ha [2, 10]: 85 to 94%; pest or weed control at 35 g/ha [2, 11]: 0 to 29%; pest or weed control at 70 g/ha [2, 11]: 0 to 29%; pest or weed control at 140 g/ha [2, 11]: 0 to 29%; pest or weed control at 35 g/ha [2, 12]: 0 to 29%; pest or weed control at 70 g/ha [2, 12]: 0 to 29%; pest or weed control at 140 g/ha [2, 12]: 0 to 29%; pest or weed control at 35 g/ha [2, 13]: 0 to 29%; pest or weed control at 70 g/ha [2, 13]: 0 to 29%; pest or weed control at 140 g/ha [2, 13]: 0 to 29%; pest or weed control at 35 g/ha [2, 14]: 95 to 100%; pest or weed control at 70 g/ha [2, 14]: 95 to 100%; pest or weed control at 140 g/ha [2, 14]: 95 to 100%; melting point: 185 to 189 °C
2 | COC(=O)c1nc(-c2cccc3c2cnn3C)c(F)c(N)c1Cl [Compound 4.10] | 0 to 29% | 0 to 29% | 0 to 29% | 0 to 29% | 95 to 100% | 95 to 100% | 0 to 29% | 0 to 29% | 0 to 29% | 0 to 29% | 0 to 29% | 0 to 29% | 0 to 29% | 0 to 29% | 0 to 29% | 0 to 29% | 0 to 29% | 45 to 59% | 0 to 29% | 0 to 29% | pest or weed control at 140 g/ha [2, 9]: 0 to 29%; pest or weed control at 35 g/ha [2, 10]: 0 to 29%; pest or weed control at 70 g/ha [2, 10]: 0 to 29%; pest or weed control at 140 g/ha [2, 10]: 0 to 29%; pest or weed control at 35 g/ha [2, 11]: 0 to 29%; pest or weed control at 70 g/ha [2, 11]: 0 to 29%; pest or weed control at 140 g/ha [2, 11]: 0 to 29%; pest or weed control at 35 g/ha [2, 12]: 0 to 29%; pest or weed control at 70 g/ha [2, 12]: 0 to 29%; pest or weed control at 140 g/ha [2, 12]: 0 to 29%; pest or weed control at 35 g/ha [2, 13]: 0 to 29%; pest or weed control at 70 g/ha [2, 13]: 0 to 29%; pest or weed control at 140 g/ha [2, 13]: 0 to 29%; pest or weed control at 35 g/ha [2, 14]: 0 to 29%; pest or weed control at 70 g/ha [2, 14]: 0 to 29%; pest or weed control at 140 g/ha [2, 14]: 0 to 29%; melting point: 170 to 175 °C
